Data published in patent US9353082B2, “Pharmaceutical compounds” (BIAL—PORTELA & CA, S.A., priority 2008, dated 2016).

Tests used:
FAAH = target: T1, FAAH (Mus musculus, UniProt O08914); assay: In vivo FAAH inhibition after oral dosing, remaining activity in liver homogenate (LVh, peripheral tissue); design: species or system NMRI mice; conditions: 8 h
T1 construct: A fragment of liver, left lung lobe and brain without cerebellum were removed; from tissue; host or cells: male NMRI mice; brain (without cerebellum) and liver homogenates
T1 sequence (O08914 1-579): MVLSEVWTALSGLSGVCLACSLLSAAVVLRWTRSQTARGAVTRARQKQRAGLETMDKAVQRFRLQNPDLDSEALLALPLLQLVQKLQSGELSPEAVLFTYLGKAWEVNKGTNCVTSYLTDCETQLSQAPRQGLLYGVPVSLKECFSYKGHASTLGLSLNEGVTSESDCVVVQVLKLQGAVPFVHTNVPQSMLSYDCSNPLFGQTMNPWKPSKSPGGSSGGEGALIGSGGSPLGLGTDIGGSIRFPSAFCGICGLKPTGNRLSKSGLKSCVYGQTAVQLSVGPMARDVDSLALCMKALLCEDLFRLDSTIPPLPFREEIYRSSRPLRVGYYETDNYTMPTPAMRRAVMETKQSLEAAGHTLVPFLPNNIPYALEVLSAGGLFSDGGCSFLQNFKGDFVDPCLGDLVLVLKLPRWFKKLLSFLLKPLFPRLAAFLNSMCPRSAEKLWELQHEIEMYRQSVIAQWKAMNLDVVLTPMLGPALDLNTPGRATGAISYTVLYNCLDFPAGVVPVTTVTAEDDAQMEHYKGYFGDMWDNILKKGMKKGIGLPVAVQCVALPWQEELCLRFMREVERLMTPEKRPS
Summary of the method: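 Remaining FAAH activity is given as % of vehicle-treated controls after blank subtraction, measured by radiolabelled AEA hydrolysis (2 μM AEA, 5 nM 3H-AEA, 37 °C) in brain (10 min) or liver (7 min) homogenates. These came from fasted male NMRI mice dosed orally at 30 or 3 mg/kg.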

carboxylesterase (CE) = assay: Carboxylesterase (CE) activity in mouse liver microsomes (LVms), p-nitrophenyl acetate; assay type: biochemical; conditions: 10 uM compound, read 10 min after substrate, remaining CE activity
Description: FAAH inhibition was determined as described above. Inhibition of monoacylglycerol lipase (MAGL) and carboxylesterase (CE) was performed according to the protocols described below. The controls for both in vitro and in vivo were the reaction mix minus the test compounds. Therefore, a low value in Table 2 below for the test compounds indicates a strong inhibitor.
CE activity measurement is based on the formation of p-nitrophenol from p-nitrophenyl acetate. Briefly, in 96-well plates 8 μg/ml of rat or mouse liver microsomes (LVms) were incubated with 10 μM FAAH inhibitors for 15 min and then the substrate, p-nitrophenyl acetate, was added to a final concentration of 1 mM. The plate was read at 405 nm 10 min after substrate addition for the appearance of p-nitrophenol using a spectrophotometer. The carboxylesterase activity in microsome extracts without inhibitor added were set at 100% as control and the remaining CE activities after incubation with inhibitors were calculated relative to the control.

FAAH LVh 3 mg · kg · 8 h (FAAH; in vivo, mouse liver, 3 mg/kg oral, remaining enzymatic activity): 101.1 % of control
In Vivo LVh 3 mg/kg 8 h, remaining FAAH activity (FAAH; liver homogenate, 3 mg/kg): 101.1 % of control
CE Mou LVms 10 uM 10 min (carboxylesterase (CE)): 84.3 % of control
SMILES: COc1cccc(-c2cn(C(=O)N3CCCc4ccccc43)cn2)c1 [Compound 39, (3,4-dihydroquinolin-1(2H)-yl)(4-(3-methoxyphenyl)-1H-imidazol-1-yl)methanone]
